Measured values as given in patent US20240417404A1, “CRYSTALLINE FORMS OF N-[4-[4-(4-MORPHOLINYL)-7H-PYRROLO[2,3-d]PYRIMIDIN-6-YL]PHENYL]-4-[[3(R)-[(1-OXO-2-PROPEN-1-YL)AMINO]-1-[sequence]]METHYL]-2-PYRIDINECARBOXAMIDE AS IRREVERSIBLE INHIBITORS OF MENIN-MLL INTERACTION” (BIOMEA FUSION, INC., priority 2023, published 2024).
“Also recorded” adds a separate entry of the source. Where two headings read alike, the source gives them in different places.

Columns and labels:
MM cell lines = test: MM cell line panel proliferation (Cell Titer Glo, four days); type: cell-based
Experimental: (§1) Compound A was tested against a THL cell line (VAL), and a DEL cell line (U2932). An expanded panel of DHL cell lines were tested for sensitivity to Compound A. Ex vivo patient samples of THL and MYC-amplified DLBCL were tested with Compound A. Sensitivity of THL and MYC-driven DLBCL in both in vitro and ex vivo models were compared with clinical reversible menin inhibitors. Compound A was tested against a panel of MM cell lines and ex vivo MM patient samples of p53del, 13qdel, and relapsed/refractory cases.
(§2) DLBCL cell line TOLEDO was cultured in the presence of Compound A or clinical reversible menin inhibitors for six and fourteen hours. Menin protein expression was reduced up to 60% at 1 μM by Compound A after fourteen hours compared to clinical reversible inhibitors at <20% at similar concentrations. Menin protein expression was measured by the Wes system and analyzed using the Compass software (automated western blotting, Protein Simple). Signal was normalized to GAPDH and referenced to DMSO control (FIG. 36E). DLBCL and MM cell lines were cultured with Compound A, bortezomib (PS-341), or DMSO for four days and cell proliferation was measured by Cell Titer Glo. Ex vivo studies of DLBCL and MM models were conducted by measurement of cell proliferation (Cell Titer Glo) after six days of treatment with Compound A, PS-341, or DMSO control.

[1] = tested on: MM patient-derived bone marrow mononuclear cells (BMMCs); test: Ex vivo MM patient-derived bone marrow mononuclear cells (Cell Titer Glo, six days); type: cell-based; details: Homo sapiens, BMMC; panel of newly diagnosed and R/R ex vivo MM samples, single agent
Experimental: as §1, §2

Pfeiffer = test: DLBCL cell line proliferation (Cell Titer Glo, four days): Pfeiffer; type: cell-based; details: GCB
Experimental: as §2

Toledo = test: DLBCL cell line proliferation (Cell Titer Glo, four days): Toledo; type: cell-based; details: DHL, MYC/BCL2
Experimental: as §2

[2] = tested on: KRAS mutated CRC, NSCLC and pancreatic cancer cell lines; test: Proliferation of KRAS mutated cell lines (CellTiter-Glo, four days); type: cell-based; details: Homo sapiens, the 31st table c5, read-out: RAS WT GI50 (μM) Pancreatic (4)
VAL = test: DLBCL cell line proliferation (Cell Titer Glo, four days): VAL; type: cell-based; details: THL
Experimental: as §2

SKMM1 = test: MM cell line proliferation (Cell Titer Glo, four days): SKMM1; type: cell-based; details: SKMM1, t(14; 20), NRAS G12A
Experimental: as §2

[3] = tested on: KRAS and MEN1 expression in MiaPaCa-2 cells; test: RNA-seq gene expression in MiaPaCa-2 cells; type: cell-based, human; details: 0.5 μM and 1 μM, twenty-four hours
Experimental: (§3) MOLM-13 and MiaPaCa-2 cells were incubated with Compound A for twenty-four hours and were analyzed by RNA-seq on an Illumina NextSeq 550 platform. […] Cell viability was measured using CellTiter Glo. Human ex vivo PDX tissue models harboring KRAS mutations were cultured with Compound A and clinical reversible menin inhibitors for six days. Cell viability was measured using CellTiter Glo.

DB = test: DLBCL cell line proliferation (Cell Titer Glo, four days): DB; type: cell-based; details: DHL
Experimental: as §2

MM1.R = test: MM cell line proliferation (Cell Titer Glo, four days): MM1.R; type: cell-based; details: t(14; 16), KRAS G12A
Experimental: as §2

[4] = tested on: KRAS mutated CRC, NSCLC and pancreatic cancer cell lines; test: Proliferation of KRAS mutated cell lines (CellTiter-Glo, four days); type: cell-based, human; details: for GI50: Homo sapiens, Pancreatic cancer cell
Experimental: The inhibitory effect on cell proliferation was investigated in the human pancreas KRAS mutated cell lines MIA PaCa-2, HuP-T4, HPAF-II, human lung KRAS mutated cell line NCI-H358, and human colon KRAS mutated cell lines SW837, SW60, and NCI-H747. […] Cells were grown by adhering to culture flasks, and maintained at 70%-80% confluency.
ATP is present in all metabolically active cells and is considered as a marker for viable cells. […] The cell proliferation assay was performed using a 96-well plate format.
Eight concentrations of test compound were assessed in duplicate for each experimental run. 100% cell proliferation is represented by the untreated cells (0.2% DMSO).
200 μL of cell suspension were added to each well of a 96-well plate.
Cell viability was measured using CellTiter Glo. […] Cell viability was measured using CellTiter Glo.

[5] = tested on: BCL2 transcript in MOLM-13 AML cells; test: RNA-seq gene expression in MOLM-13 cells; type: cell-based; details: twenty-four hours post treatment, relative to vehicle control
Experimental: as §3
Compound A elicits >90% reduction of BCL2 transcript at twenty-four hours post treatment in MOLM-13 cells as the gene expression data is not in CLL cells. Fold change was calculated relative to vehicle control (FIG. 39). Compound A achieves >98% cell lethality against diverse CLL ex vivo models (FIGS. 40A-40E).

MM1.S = test: MM cell line proliferation (Cell Titer Glo, four days): MM1.S; type: cell-based; details: t(14; 16), KRAS G12A
Experimental: as §2

JJN3 = test: MM cell line proliferation (Cell Titer Glo, four days): JJN3; type: cell-based; details: JJN3, t(14; 16), NRAS Q61K
Experimental: as §2

C=CC(=O)N[C@@H]1CCCN(Cc2ccnc(C(=O)Nc3ccc(-c4cc5c(N6CCOCC6)ncnc5[nH]4)cc3)c2)C1 [Compound A, N-[4-[4-(4-morpholinyl)-7H-pyrrolo[2,3-d]pyrimidin-6-yl]phenyl]-4-[[3(R)-[(1-oxo-2-propen-1-yl)amino]-1-piperidinyl]methyl]-2-pyridinecarboxamide]
cell lethality (MM cell lines; MM cell lines): > 99%
growth inhibition (MM cell lines; MM cell lines harboring mutations in TP53, KRAS, and NRAS, 1 μM exposure, single agent): 100%
IC50 [1]: 0.1 to 0.3 µM
Average % Max Inhibition by Compound A (Pfeiffer): 99.6%
Average % Max Inhibition by Compound A (Toledo): 98.8%
GI50 [2]: 0.43 to 0.83 µM
Average % Max Inhibition by Compound A (VAL; MYC/BCL2/BCL6): 97.1%
IC50 (VAL; MYC/BCL2/BCL6, read-out: Average IC50 ± Standard Deviation): 0.271 ± 0.07 µM
Average % Max Inhibition by Compound A (SKMM1): 99.2%
IC50 (SKMM1; read-out: Average IC50 ± Standard Deviation): 0.467 ± 0.05 µM
KRAS and MEN1 expression levels [3]: marked reduction; also recorded: dramatically decreased
Average % Max Inhibition by Compound A (DB; MYC/BCL2): 98.5%
IC50 (DB; Homo sapiens, MYC/BCL2, read-out: Average IC50 ± Standard Deviation): 0.407 ± 0.067 µM
Average % Max Inhibition by Compound A (MM1.R): 99.6%
GI50 ([4]; the 31st table c1, read-out: KRAS G12C GI50 (μM) NSCLC (8)): 0.36 to 0.57 µM
GI50 ([4]; the 31st table c2, read-out: KRAS G12D GI50 (μM) Pancreatic (1)): 0.43 µM
GI50 ([4]; the 31st table c3, read-out: KRAS G13D GI50 (μM) CRC (1)): 0.57 µM
GI50 ([4]; the 31st table c4, read-out: KRAS G12V GI50 (μM) NSCLC (1)): 0.29 µM
GI50 ([4]; the 31st table c6, read-out: GI50 Summary Tumor Type): 0.42 µM
GI50 ([4]; the 31st table c7 (second block of heads), read-out: KRAS G12C GI50 (μM) NSCLC (8)): 0.34 µM
GI50 ([4]; the 31st table c8 (second block of heads), read-out: KRAS G12D GI50 (μM) Pancreatic (1)): 0.37 to 0.57 µM
GI50 ([4]; the 31st table c9 (second block of heads), read-out: KRAS G13D GI50 (μM) CRC (1)): 0.45 µM
GI50 ([4]; the 31st table c10 (second block of heads), read-out: KRAS G12V GI50 (μM) NSCLC (1)): 1.6 µM
growth inhibition of KRAS-mutated cell lines compared to a known KRAS therapeutic ([4]; all cancer cell types tested): significantly greater growth inhibition
inhibition of growth ([4]; most of fourteen CRC, NSCLC, pancreatic KRAS mutated cell lines, four-day treatment): > 90%
inhibition of cell viability ([4]; seven of ten KRAS G12C NSCLC cell lines): ≥ 90%
KRAS G12V GI50 (μM) NSCLC (1) ([4]; the 31st table c10 (second block of heads)): LR (Limited Response (LR) = % growth inhibition <30%)
reduction of BCL2 transcript [5]: > 90%
Average % Max Inhibition by Compound A (MM1.S): 99.5%
Average % Max Inhibition by Compound A (JJN3): 99.2%
